The test deals with human NaV 1.8 (Homo sapiens, UniProt Q9Y5Y9). Nature of the test: E-VIPR assay detecting and measuring NaV inhibition properties. Type of test: cell-based. The note with it: HEK cells expressing truncated human NaV 1.8; no human serum; read-out: IC50 in the E-VIPR Assay. From the text: Sodium ion channels are voltage-dependent proteins that can be activated by inducing membrane voltage changes by applying electric fields. The electrical stimulation instrument and methods of use, referred to as E-VIPR, are described in International Publication No. WO 2002/008748 A3 and C.-J. Huang et al. Characterization of voltage-gated sodium channel blockers by electrical stimulation and fluorescence detection of membrane potential, 24 Nature Biotech. 439-46 (2006), both of which are incorporated by reference in their entirety. The instrument comprises a microtiter plate handler, an optical system for exciting the coumarin dye while simultaneously recording the coumarin and oxonol emissions, a waveform generator, a current- or voltage-controlled amplifier, and parallel electrode pairs that are inserted into assay plate wells. Under integrated computer control, this instrument passes user-programmed electrical stimulus protocols to cells within the wells of the microtiter plate.
human NaV 1.8, sequence (Q9Y5Y9 126-399 limits assumed): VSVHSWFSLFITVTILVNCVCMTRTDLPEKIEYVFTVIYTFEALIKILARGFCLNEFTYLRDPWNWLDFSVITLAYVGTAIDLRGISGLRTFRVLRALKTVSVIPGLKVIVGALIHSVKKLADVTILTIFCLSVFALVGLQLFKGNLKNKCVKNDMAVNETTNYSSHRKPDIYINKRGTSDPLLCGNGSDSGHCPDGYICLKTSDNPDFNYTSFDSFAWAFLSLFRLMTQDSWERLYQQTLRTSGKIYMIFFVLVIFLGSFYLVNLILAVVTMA
human NaV 1.8, sequence (Q9Y5Y9 660-890 limits assumed): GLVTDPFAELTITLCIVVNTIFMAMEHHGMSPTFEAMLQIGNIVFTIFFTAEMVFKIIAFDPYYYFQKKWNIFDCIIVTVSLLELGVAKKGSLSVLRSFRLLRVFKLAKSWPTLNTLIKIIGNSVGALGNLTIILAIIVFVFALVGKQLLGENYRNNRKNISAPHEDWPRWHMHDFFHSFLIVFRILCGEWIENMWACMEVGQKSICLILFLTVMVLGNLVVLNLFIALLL
human NaV 1.8, sequence (Q9Y5Y9 1148-1722 limits assumed): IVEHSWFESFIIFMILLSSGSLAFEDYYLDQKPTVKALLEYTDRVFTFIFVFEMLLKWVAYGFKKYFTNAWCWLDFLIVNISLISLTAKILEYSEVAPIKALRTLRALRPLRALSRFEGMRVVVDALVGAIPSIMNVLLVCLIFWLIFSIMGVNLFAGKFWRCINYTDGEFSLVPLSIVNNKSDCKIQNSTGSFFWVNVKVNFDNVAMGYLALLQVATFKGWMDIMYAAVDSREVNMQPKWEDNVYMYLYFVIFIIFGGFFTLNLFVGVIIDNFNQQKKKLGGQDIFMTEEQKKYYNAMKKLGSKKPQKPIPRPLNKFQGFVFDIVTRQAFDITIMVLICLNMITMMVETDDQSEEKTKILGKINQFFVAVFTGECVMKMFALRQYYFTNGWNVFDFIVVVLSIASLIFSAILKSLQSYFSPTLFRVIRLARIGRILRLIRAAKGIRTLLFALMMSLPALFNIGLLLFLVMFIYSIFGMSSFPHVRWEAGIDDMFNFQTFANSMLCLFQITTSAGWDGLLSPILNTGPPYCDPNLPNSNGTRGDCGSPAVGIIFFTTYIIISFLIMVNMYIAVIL
16-20 hours prior to running the assay on E-VIPR, HEK cells expressing a truncated form of human NaV 1.8 with full channel activity were seeded into microtiter 384-well plates, pre-coated with matrigel, at a density of 25,000 cells per well. 2.5-5% KIR2.1 Bacmam virus was added to the final cell suspension before seeding into cell plates. HEK cells were grown in Dulbecco's Modified Eagle's Medium (DMEM) supplemented with 10% FBS (Fetal Bovine Serum, qualified; Sigma #F4135), 1% NEAA (Non-Essential Amino Acids, Gibco #11140), 1% HEPES (Gibco #15630), 1% Pen-Strep (Penicillin-Streptomycin; Gibco #15140) and 5 μg/ml Blasticidin (Gibco #R210-01). Cells were expanded in vented cap cell culture flasks, with 90-95% humidity and 5% CO2.
Human Serum (HS, Millipore #S1P1-01KL, or Sigma SLBR5469V and SLBR5470V as a 50%/50% mixture, for 25% assay final concentration) • Bath 1 Buffer: • Sodium Chloride 160 mM (9.35 g/L), Potassium Chloride, 4.5 mM (0.335 g/L), Glucose 10 mM (1.8 g/L), Magnesium Chloride (Anhydrous) 1 mM (0.095 g/L), Calcium Chloride 2 mM (0.222 g/L), HEPES 10 mM (2.38 g/L) in water. • Na/TMA C1 Bath 1 Buffer: • Sodium Chloride 96 mM (5.61 g/L), Potassium Chloride 4.5 mM (0.335 g/L), Tetramethylammonium (TMA)-Cl 64 mM (7.01 g/L), Glucose 10 mM (1.8 g/L), Magnesium Chloride (Anhydrous) 1 mM (0.095 g/L), Calcium Chloride 2 mM (0.222 g/L) HEPES 10 mM (2.38 g/L) in water. • Hexyl Dye Solution (2× concentration): • Bath 1 Buffer containing 0.5% P-cyclodextrin (made fresh prior to each use, Sigma #C4767), 8 μM CC2-DMPE and 2 μM DiSBAC6(3). The solution was made by adding 10% Pluronic F127 stock equal to combined volumes of CC2-DMPE and DiSBAC6(3). The order of preparation was first mix Pluronic and CC2-DMPE, then add DiSBAC6(3), then while vortexing add Bath 1/p-Cyclodextrin.
Compound Loading Buffer (2× concentration): Na/TMA C1 Bath1 Buffer containing HS (omitted in experiments run in the absence of human serum (HS)) 50%, VABSC-1 1 mM, BSA 0.2 mg/ml (in Bath-1), KCl 9 mM, DMSO 0.625%.
1) To reach the final concentration in each well, 375 nL of each compound was pre-spotted (in neat DMSO) into polypropylene compound plates at 240× desired final concentration from an intermediate stock concentration of 0.075 mM, in an 11 point dose response, 3-fold dilution, resulting in a top dose of 300 nM final concentration in the cell plate. Vehicle control (neat DMSO), and positive control (an established NaV1.8 inhibitor, 25 μM final in assay in DMSO) were added manually to the outermost columns of each plate respectively. The compound plate was backfilled with 45 μL per well of Compound Loading Buffer resulting in a 240 fold dilution of compound following a 1:1 transfer of compound into the cell plate (see Step 6). Final DMSO concentration for all wells in the assay was 0.625% (0.75% DMSO was supplemented to the Compound Loading Buffer for a final DMSO concentration of 0.625%). […]
As to `COc1c([C@H]2[C@H](C(=O)Nc3ccnc(C(C)(N)CO)c3)O[C@@](C)(C(F)(F)F)[C@H]2C)ccc(F)c1F` (single isomer, unassigned) [Compound 358, rel-(2R*,3S*,4S*,5R*)-N-(2-(2-amino-1-hydroxypropan-2-yl)pyridin-4-yl)-3-(3,4-difluoro-2-methoxyphenyl)-4,5-dimethyl-5-(trifluoromethyl)-tetrahydrofuran-2-carboxamide], the IC50 (usually the point on the concentration scale where inhibition reaches its midpoint) was less than 10 nM.

Turning to `COc1c([C@H]2[C@H](C(=O)Nc3c[nH]nn3)O[C@@](C)(C(F)(F)F)[C@H]2C)ccc(F)c1F` [Compound 372, (2R,3S,4S,5R)-3-(3,4-difluoro-2-methoxyphenyl)-4,5-dimethyl-N-(1H-1,2,3-triazol-4-yl)-5-(trifluoromethyl)tetrahydrofuran-2-carboxamide], the IC50 is 10 to 100 nM.

Take `COc1c([C@H]2[C@H](C(=O)Nc3ccnc(N4C[C@H]5C[C@H](N5)C4=O)c3)O[C@@](C)(C(F)(F)F)[C@H]2C)ccc(F)c1F` (single isomer, unassigned) [Compound 491, rel-(2R*,3S*,4S*,5R*)-3-(3,4-difluoro-2-methoxyphenyl)-4,5-dimethyl-N-(2-((1S,5R)-2-oxo-3,6-diazabicyclo[3.1.1]heptan-3-yl)pyridin-4-yl)-5-(trifluoromethyl)tetrahydrofuran-2-carboxamide]: the IC50 fell in the range of 10 to 100 nM.

Turning to `COCCOc1c([C@H]2[C@H](C(=O)Nc3ccnc(CO)c3)O[C@@](C)(C(F)(F)F)[C@H]2C)ccc(F)c1F` [Compound 639, (2R,3S,4S,5R)-3-(3,4-difluoro-2-(2-methoxyethoxy)phenyl)-N-(2-(hydroxymethyl)pyridin-4-yl)-4,5-dimethyl-5-(trifluoromethyl)tetrahydrofuran-2-carboxamide], the IC50 is less than 10 nM.

As for `COc1c([C@H]2[C@H](C(=O)Nc3ccnc(CN4CCC[C@H]4CO)c3)O[C@@](C)(C(F)(F)F)[C@H]2C)ccc(F)c1F` [Compound 386, (2R,3S,4S,5R)-3-(3,4-difluoro-2-methoxyphenyl)-N-(2-(((S)-2-(hydroxymethyl)pyrrolidin-1-yl)methyl)pyridin-4-yl)-4,5-dimethyl-5-(trifluoromethyl)tetrahydrofuran-2-carboxamide], the IC50 was less than 10 nM.

As for `COc1c([C@H]2[C@H](C(=O)Nc3ccc(-c4ncco4)nc3)O[C@@](C)(C(F)(F)F)[C@H]2C)ccc(F)c1F` [Compound 399, (2R,3S,4S,5R)-3-(3,4-difluoro-2-methoxyphenyl)-4,5-dimethyl-N-(6-(oxazol-2-yl)pyridin-3-yl)-5-(trifluoromethyl)-tetrahydrofuran-2-carboxamide], the IC50 is 10 to 100 nM.

As to `COc1c([C@@H]2[C@@H](C(=O)Nc3ccnc(S(C)(=N)=O)c3)O[C@](C)(C(F)(F)F)[C@@H]2C)ccc(F)c1C` (relative stereo) [Compound 150, rel-(2S,3R,4R,5S)-3-(4-fluoro-2-methoxy-3-methylphenyl)-4,5-dimethyl-N-(2-(S-methylsulfonimidoyl)pyridin-4-yl)-5-(trifluoromethyl)tetrahydrofuran-2-carboxamide], the IC50 fell in the range of 100 to 1000 nM.

Take `C[C@H]1[C@@H](c2ccc(F)c(F)c2OCCO)[C@H](C(=O)Nc2cnsc2)O[C@@]1(C)C(F)(F)F` [Compound 572, (2R,3S,4S,5R)-3-(3,4-difluoro-2-(2-hydroxyethoxy)phenyl)-N-(isothiazol-4-yl)-4,5-dimethyl-5-(trifluoromethyl)tetrahydrofuran-2-carboxamide]: the IC50 is 10 to 100 nM.

For `Cc1nn(C(F)F)cc1NC(=O)[C@@H]1O[C@@](C)(C(F)(F)F)[C@@H](C)[C@H]1c1ccc(F)c(F)c1CO` [Compound 668, (2R,3S,4S,5R)-3-(3,4-difluoro-2-(hydroxymethyl)phenyl)-N-(1-(difluoromethyl)-3-methyl-1H-pyrazol-4-yl)-4,5-dimethyl-5-(trifluoromethyl)tetrahydrofuran-2-carboxamide], the IC50 was 10 to 100 nM.

Take `Cc1nocc1NC(=O)[C@@H]1O[C@@](C)(C(F)(F)F)[C@@H](C)[C@H]1c1ccc(F)c(F)c1OCCN1CC2CC(C1)O2` [Compound 633, (2R,3S,4S,5R)-3-(2-(2-(6-oxa-3-azabicyclo[3.1.1]heptan-3-yl)ethoxy)-3,4-difluorophenyl)-4,5-dimethyl-N-(3-methylisoxazol-4-yl)-5-(trifluoromethyl)tetrahydrofuran-2-carboxamide]: the concentration for half-maximal inhibition (IC50) lay in the range of 10 to 100 nM.

In the case of `Cc1nnn2ccc(NC(=O)[C@@H]3O[C@@](C)(C(F)(F)F)[C@@H](C)[C@H]3c3ccc(F)c(F)c3OCCO)cc12` [Compound 574, (2R,3S,4S,5R)-3-(3,4-difluoro-2-(2-hydroxyethoxy)phenyl)-4,5-dimethyl-N-(3-methyl-[1,2,3]triazolo[1,5-a]pyridin-5-yl)-5-(trifluoromethyl)tetrahydrofuran-2-carboxamide], the IC50 lay in the range of 10 to 100 nM.

Regarding `COc1c([C@H]2[C@H](C(=O)NC3CN(C)C3)O[C@@](C)(C(F)(F)F)[C@H]2C)ccc(F)c1F` [Compound 278, (2R,3S,4S,5R)-3-(3,4-difluoro-2-methoxyphenyl)-4,5-dimethyl-N-(1-methylazetidin-3-yl)-5-(trifluoromethyl)tetrahydrofuran-2-carboxamide], the IC50 is not below 1000 nM.

Turning to `COc1c([C@H]2[C@H](C(=O)NC3CCN(C(C)=O)C3)O[C@@](C)(C(F)(F)F)[C@H]2C)ccc(F)c1F` (stereo partly drawn) [Compound 298, (2R,3S,4S,5R)-N-(1-acetylpyrrolidin-3-yl)-3-(3,4-difluoro-2-methoxyphenyl)-4,5-dimethyl-5-(trifluoromethyl)tetrahydrofuran-2-carboxamide], the IC50 was not below 1000 nM.

Consider `COC[C@@H](C)Oc1c([C@H]2[C@H](C(=O)Nc3ccnc(CO)c3)O[C@@](C)(C(F)(F)F)[C@H]2C)ccc(F)c1F` [Compound 646, (2R,3S,4S,5R)-3-(3,4-difluoro-2-(((R)-1-methoxypropan-2-yl)oxy)phenyl)-N-(2-(hydroxymethyl)pyridin-4-yl)-4,5-dimethyl-5-(trifluoromethyl)tetrahydrofuran-2-carboxamide], for which the IC50 was less than 10 nM.

Take `Cc1nocc1NC(=O)[C@@H]1O[C@@](C)(C(F)(F)F)[C@@H](C)[C@H]1c1ccc(F)c(F)c1OCCN1CC2(COC2)C1` [Compound 619, (2R,3S,4S,5R)-3-(2-(2-(2-oxa-6-azaspiro[3.3]heptan-6-yl)ethoxy)-3,4-difluorophenyl)-4,5-dimethyl-N-(3-methylisoxazol-4-yl)-5-(trifluoromethyl)tetrahydrofuran-2-carboxamide]: the IC50 lay within 10 to 100 nM.

`COc1c([C@H]2[C@H](C(=O)Nc3ccc(C(N)=O)nc3)O[C@@](C)(C(F)(F)F)[C@H]2C)ccc(F)c1C(F)F` (stereo in doubt) [Compound 168, rel-5-((2R,3S,4S,5R)-3-(3-(difluoromethyl)-4-fluoro-2-methoxyphenyl)-4,5-dimethyl-5-(trifluoromethyl)tetrahydrofuran-2-carboxamido)picolinamide]: the IC50 is less than 10 nM.

As to `CCOc1c([C@@H]2[C@@H](C(=O)Nc3ccnc(S(C)(=N)=O)c3)O[C@](C)(C(F)(F)F)[C@@H]2C)ccc(F)c1C` (relative stereo) [Compound 124, rel-(2S,3R,4R,5S)-3-(2-ethoxy-4-fluoro-3-methylphenyl)-4,5-dimethyl-N-(2-(S-methylsulfonimidoyl)pyridin-4-yl)-5-(trifluoromethyl)tetrahydrofuran-2-carboxamide], the IC50 was in the range of 100 to 1000 nM.

(Values after patent US20240368135A1 (VERTEX PHARMACEUTICALS INCORPORATED, priority 2021, published 2024).)
